Drawing on patent US10765662B2, “Mono- or di-substituted indole derivatives as dengue viral replication inhibitors” (Janssen Pharmaceuticals, Inc., priority 2015, dated 2020), this text covers EC50 and CC50 for six compounds.

The subject of one data set is DENV-1 strain TC974#666. The data set can be described thus: Tetravalent RT-qPCR assay Protocol A, serotype 1. The format is cell-based. The following applies: Dengue virus, DENV1, 72 h; RT-qPCR serotype 1 TC974#666, Vero cells, day 3. The protocol: (§1) The antiviral activity of the compounds of the invention was tested against DENV-1 strain TC974#666 (NCPV), DENV-2 strain 16681, DENV-3 strain H87 (NCPV) and DENV-4 strains H241 (NCPV) and EDEN (SG/06K2270DK1/2005; GenBank accession number QG398256) in a RT-qPCR assay. Therefore, Vero cells were infected with either DENV-1, or -2, or -3, or -4 in the presence or absence of test compounds. At day 3 post-infection, the cells were lysed and cell lysates were used to prepare cDNA of both a viral target (the 3′UTR of DENV; Table 2) and a cellular reference gene (β-actin, Table 2). Subsequently, a duplex real time PCR was performed on a Lightcycler480 instrument. The generated Cp value is inversely proportional to the amount of RNA expression of these targets. Inhibition of DENV replication by a test compound results in a shift of Cp's for the 3′UTR gene. On the other hand, if a test compound is toxic to the cells, a similar effect on β-actin expression will be observed. The comparative ΔΔCp method is used to calculate EC50, which is based on the relative gene expression of the target gene (3′UTR) normalized with the cellular housekeeping gene (β-actin). In addition, CC50 values are determined based on the Cp values acquired for the housekeeping gene β-actin.
(§2) The culture medium consisted of minimal essential medium supplemented with 2% of heat-inactivated fetal calf serum, 0.04% gentamycin (50 mg/mL) and 2 mM of L-glutamine. Vero cells, obtained from ECACC, were suspended in culture medium and 75 μL/well was added in 96-well plates (10000 cells/well), which already contain the antiviral compounds. […] In addition, each plate contains wells which are assigned as virus controls (containing cells and virus in the absence of compound) and cell controls (containing cells in the absence of virus and compound). Once the cells were added in the plates, the plates were incubated in a fully humidified incubator (37° C., 5% CO2) until the next day. Dengue viruses serotype-1, 2, 3 and 4 were diluted in order to obtain a Cp of ˜22-24 in the assay. Therefore, 25 μL of virus suspension, was added to all the wells containing test compound and to the wells assigned as virus control. In parallel, 25 μL of culture medium was added to the cell controls. Next, the plates were incubated for 3 days in a fully humidified incubator (37° C., 5% CO2). After 3 days, the supernatant was removed from the wells and the cells were washed twice with ice-cold PBS (˜100 μL). The cell pellets within the 96-well plates were stored at −80° C. for at least 1 day. Next, RNA was extracted using the Cells-to-CT™ lysis kit, according to the manufacturer's guideline (Life Technologies). The cell lysates can be stored at −80° C. or immediately used in the reverse transcription step.
(§3) In preparation of the reverse transcription step, mix A (table 3A) was prepared and 7.57 μL/well was dispensed in a 96-well plate. After addition of 5 μL of the cell lysates, a five minute denaturation step at 75° C. was performed (table 3B). Afterwards, 7.43 μL of mix B was added (table 3C) and the reverse transcription step was initiated (table 3D) to generate cDNA.
(§4) Finally, a RT-qPCR mix was prepared, mix C (table 4A), and 22.02 μL/well was dispensed in 96-well LightCycler qPCR plates to which 3 μL of cDNA was added and the qPCR was performed according to the conditions in table 4B on a LightCycler 480.
(§5) Using the LightCycler software and an in-house LIMS system, dose response curves for each compound were calculated and the half maximal effective concentration (EC50) and the half maximal cytotoxic concentration (CC50) were determined (Tables 5-8).

Data set [1] has as its system DENV-4 strain EDEN (SG/06K2270DK1/2005). The experiment in a line: Tetravalent RT-qPCR assay Protocol A, serotype 4 EDEN. The format is cell-based. As to conditions: Dengue virus, DENV4, 72 h; RT-qPCR serotype 4 EDEN, Vero cells, day 3. Here is the method:
as §1, §2, §3, §4, §5

Data set [2] relates to DENV-2 16681 strain labeled with enhanced green fluorescent protein. The data set can be described thus: DENV-2 antiviral assay (eGFP fluorescence read-out in Vero cells). The format is cell-based, Dengue virus. As to conditions: DENV-2 16681 eGFP, MOI 0.5, 3 days. The method in brief: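 Vero cells (2500/well) pre-plated with compound (9-step 5-fold series), infected next day with eGFP-labeled DENV-2 16681 at MOI 0.5 in MEM with 2% FCS; 3 days at 37° C. eGFP fluorescence read at 488 nm; inhibition versus virus and cell controls, EC50 by linear interpolation.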

For the next data set, the system named is Vero cells. The experiment in a line: in vitro. The class given is cell-based. The following applies: African green monkey.
For another data set, the system named is DENV-4 strain H241. The data set can be described thus: Tetravalent RT-qPCR assay Protocol A, serotype 4 H241. The following applies: Dengue virus, DENV4, Vero, 72 h. The format is cell-based. The protocol:
as §1, §2, §3, §4, §5

A short description of data set [3]: in vitro. The class given is cell-based. As to conditions: African green monkey. Here is the method: as §1, §2, §5
In a further data set the test system is DENV-2 strain 16681. The data set can be described thus: Tetravalent RT-qPCR assay Protocol A, serotype 2. The format is cell-based. The following applies: Dengue virus, DENV2, 72 h; RT-qPCR serotype 2 16681, Vero cells, day 3. The protocol:
as §1, §2, §3, §4, §5

Another data set deals with DENV-3 strain H87. The data set can be described thus: Tetravalent RT-qPCR assay Protocol A, serotype 3. The format is cell-based. The following applies: Dengue virus, DENV3, 72 h; RT-qPCR serotype 3 H87, Vero cells, day 3. The protocol:
as §1, §2, §3, §4, §5

The nature of data set [4]: in vitro. As to conditions: African green monkey, CC50. The format is cell-based.

On to `COc1cc(NC(C(=O)c2c[nH]c3c(C)c(Cl)ccc23)c2ccc(Cl)cc2OCCO)cc(S(C)(=O)=O)c1` (single isomer, unassigned) [Compound 5B, 2-(4-chloro-2-(2-hydroxyethoxy)phenyl)-1-(6-chloro-7-methyl-1H-indol-3-yl)-2-((3-methoxy-5-(methylsulfonyl)phenyl)amino)ethanone], for which the EC50 in the data set with DENV-1 strain TC974#666 amounted to 1.6 nM; in data set [1], 1.1 nM; in [2], 0.066 nM; in the data set on DENV-4 strain H241 it was 74 nM; in the data set with DENV-2 strain 16681 it was 0.065 nM; with DENV-3 strain H87, 12 nM. The compound further yielded a CC50 with Vero cells of 3400 nM. In “in vitro [3]”, the CC50 at 3 days was > 2500 nM.

With `COc1cc(NC(C(=O)c2c[nH]c3cc(OC)ccc23)c2ccc(Cl)cc2OCCO)cc(S(C)(=O)=O)c1` (single isomer, unassigned) [Compound 3A, 2-(4-chloro-2-(2-hydroxyethoxy)phenyl)-1-(6-methoxy-1H-indol-3-yl)-2-((3-methoxy-5-(methylsulfonyl)phenyl)amino)ethanone], the EC50 in the data set with DENV-1 strain TC974#666 was 4.2 nM; in data set [1] it was 3.1 nM; in [2], 0.32 nM; in the data set with DENV-4 strain H241, 110 nM; in the data set on DENV-2 strain 16681 it was 0.4 nM; with DENV-3 strain H87, 42 nM. The compound also yielded a CC50 in the data set with Vero cells of 5200 nM. In addition, in “in vitro [3]”, half-maximal cytotoxicity (CC50 at 3 days) was put at 5800 nM.

Take `COc1cc(NC(C(=O)c2c[nH]c3c(C)c(F)ccc23)c2ccc(Cl)cc2OCCO)cc(S(C)(=O)=O)c1` (single isomer, unassigned) [Compound 4A, 2-(4-chloro-2-(2-hydroxyethoxy)phenyl)-1-(6-fluoro-7-methyl-1H-indol-3-yl)-2-((3-methoxy-5-(methylsulfonyl)phenyl)amino)ethanone]: the EC50 in the data set with DENV-1 strain TC974#666 came out at 1.7 nM; in data set [1] it was 1.4 nM; in data set [2], 0.13 nM; with DENV-4 strain H241 it was 78 nM; in the data set with DENV-2 strain 16681 it was 0.16 nM; in the data set with DENV-3 strain H87, 18 nM. In the data set “in vitro [4]”, the CC50 amounted to 3000 nM. Also, the CC50 at 3 days in “in vitro [3]” is > 2500 nM.

For the compound `COc1cc(NC(C(=O)c2c[nH]c3cc(Cl)ccc23)c2ccc(Cl)cc2OCCO)cc(S(C)(=O)=O)c1` (single isomer, unassigned) [Compound 2A, 1-(6-chloro-1H-indol-3-yl)-2-(4-chloro-2-(2-hydroxyethoxy)phenyl)-2-((3-methoxy-5-(methylsulfonyl)phenyl)amino)ethanone], the 50% effective concentration (EC50) stood at 1.6 nM with DENV-1 strain TC974#666; 1.3 nM in data set [1]; 0.11 nM in [2]; 74 nM in the data set with DENV-4 strain H241; 0.14 nM in the data set with DENV-2 strain 16681; 18 nM with DENV-3 strain H87. For the same compound, in the data set on Vero cells, the CC50 stood at 3400 nM. Besides, in the data set “in vitro [3]”, the CC50 at 3 days is > 2500 nM.

In the case of `COc1cc(NC(C(=O)c2c[nH]c3cc(F)c(F)cc23)c2ccc(Cl)cc2OCCO)cc(S(C)(=O)=O)c1` (single isomer, unassigned) [Compound 7A, 2-(4-chloro-2-(2-hydroxyethoxy)phenyl)-1-(5,6-difluoro-1H-indol-3-yl)-2-((3-methoxy-5-(methylsulfonyl)phenyl)amino)ethanone], the EC50 with DENV-1 strain TC974#666 came out at 0.97 nM; in data set [1] it was 0.64 nM; in data set [2], 0.22 nM; in the data set with DENV-4 strain H241 it was 64 nM; in the data set on DENV-2 strain 16681, 0.21 nM; in the data set on DENV-3 strain H87, 11 nM. This compound displayed a CC50 in the data set on Vero cells of 2700 nM. Also, the CC50 at 3 days in the data set “in vitro [3]” is 2900 nM.

Turning to `COc1cc(NC(C(=O)c2c[nH]c3cc(OC)c(C)cc23)c2ccc(Cl)cc2OCCO)cc(S(C)(=O)=O)c1` (single isomer, unassigned) [Compound 6A, 2-(4-chloro-2-(2-hydroxyethoxy)phenyl)-2-((3-methoxy-5-(methylsulfonyl)phenyl)amino)-1-(6-methoxy-5-methyl-1H-indol-3-yl)ethanone], the EC50 was 1.6 nM with DENV-1 strain TC974#666; 1 nM in data set [1]; 0.13 nM in data set [2]; 53 nM in the data set with DENV-4 strain H241; 0.21 nM in the data set with DENV-2 strain 16681; 17 nM in the data set with DENV-3 strain H87. Further, the CC50 in “in vitro [4]” stood at 3800 nM. Besides, in the data set “in vitro [3]”, the CC50 at 3 days came to 4900 nM.
